From ChEMBL document CHEMBL4190322, “Structure-based development of novel triazoles and related thiazolotriazoles as anticancer agents and Cdc25A/B phosphatase inhibitors. Synthesis, in vitro biological evaluation, molecular docking and in silico ADME-T studies” (Eur J Med Chem, 2017)
Calls of active or inactive are those of the source. No cut-off for these calls is given here.

Legend:
[1] = test system: OVCAR-8; assay: Growth inhibition of human OVCAR8 cells at 10 uM after 48 hrs by SRB assay relative to control; assay type: functional; settings: for inhibition of growth at 10 µM: OVCAR-8, 48 h, read-out: GI
[2] = test system: NCI-H23; assay: Growth inhibition of human NCI-H23 cells at 10 uM after 48 hrs by SRB assay relative to control; assay type: functional; settings: NCI-H23, 48 h, read-out: GI
[3] = test system: HOP-62; assay: Growth inhibition of human HOP62 cells at 10 uM after 48 hrs by SRB assay relative to control; assay type: functional; settings: HOP-62, 48 h, read-out: GI
[4] = test system: SK-OV-3; assay: Growth inhibition of human SKOV3 cells at 10 uM after 48 hrs by SRB assay relative to control; assay type: functional; settings: SK-OV-3, 48 h, read-out: GI
[5] = test system: HL-60; assay: Growth inhibition of human HL60 cells at 10 uM after 48 hrs by SRB assay relative to control; assay type: functional
[6] = test system: Malme-3M; assay: Growth inhibition of human MALME-3M cells at 10 uM after 48 hrs by SRB assay relative to control; assay type: functional; settings: read-out: GI
[7] = test system: SK-MEL-5; assay: Growth inhibition of human SK-MEL-5 cells at 10 uM after 48 hrs by SRB assay relative to control; assay type: functional; settings: SK-MEL-5, 48 h, read-out: GI
[8] = test system: U-251; assay: Growth inhibition of human U251 cells at 10 uM after 48 hrs by SRB assay relative to control; assay type: functional; settings: U-251, 48 h, read-out: GI
[9] = test system: A498; assay: Growth inhibition of human A498 cells at 10 uM after 48 hrs by SRB assay relative to control; assay type: functional; settings: A498, 48 h, read-out: GI
[10] = test system: UACC-62; assay: Growth inhibition of human UACC62 cells at 10 uM after 48 hrs by SRB assay relative to control; assay type: functional; settings: UACC-62, 48 h, read-out: GI
[11] = test system: OVCAR-3; assay: Growth inhibition of human OVCAR3 cells at 10 uM after 48 hrs by SRB assay relative to control; assay type: functional; settings: for inhibition of growth at 10 µM: OVCAR-3, 48 h, read-out: GI
[12] = test system: K562; assay: Growth inhibition of human K562 cells at 10 uM after 48 hrs by SRB assay relative to control; assay type: functional; settings: K562, 48 h, read-out: GI
[13] = test system: SNB-19; assay: Growth inhibition of human SNB19 cells at 10 uM after 48 hrs by SRB assay relative to control; assay type: functional; settings: for inhibition of growth at 10 µM: SNB-19, 48 h, read-out: GI
[14] = test system: MOLT-4; assay: Growth inhibition of human MOLT4 cells at 10 uM after 48 hrs by SRB assay relative to control; assay type: functional; settings: MOLT-4, 48 h, read-out: GI
[15] = test system: LOX IMVI; assay: Growth inhibition of human LOXIMVI cells at 10 uM after 48 hrs by SRB assay relative to control; assay type: functional; settings: read-out: GI
[16] = test system: OVCAR-4; assay: Growth inhibition of human OVCAR4 cells at 10 uM after 48 hrs by SRB assay relative to control; assay type: functional; settings: OVCAR-4, 48 h, read-out: GI
[17] = test system: SNB-75; assay: Growth inhibition of human SNB75 cells at 10 uM after 48 hrs by SRB assay relative to control; assay type: functional; settings: SNB-75, 48 h, read-out: GI
[18] = test system: UACC-257; assay: Growth inhibition of human UACC257 cells at 10 uM after 48 hrs by SRB assay relative to control; assay type: functional
[19] = test system: KM12; assay: Growth inhibition of human KM12 cells at 10 uM after 48 hrs by SRB assay relative to control; assay type: functional; settings: KM12, 48 h, read-out: GI
[20] = Cytotoxicity against human MCF10A cells after 24 hrs by MTT assay; assay type: cell-based, MCF-10A; settings: read-out: LC50
[21] = target: T1, M-phase inducer phosphatase 1 (Homo sapiens, UniProt P30304); assay: Inhibition of human CDC25A using OMFP as substrate after 15 mins by fluorescence assay
T1 sequence (P30304 whole entry): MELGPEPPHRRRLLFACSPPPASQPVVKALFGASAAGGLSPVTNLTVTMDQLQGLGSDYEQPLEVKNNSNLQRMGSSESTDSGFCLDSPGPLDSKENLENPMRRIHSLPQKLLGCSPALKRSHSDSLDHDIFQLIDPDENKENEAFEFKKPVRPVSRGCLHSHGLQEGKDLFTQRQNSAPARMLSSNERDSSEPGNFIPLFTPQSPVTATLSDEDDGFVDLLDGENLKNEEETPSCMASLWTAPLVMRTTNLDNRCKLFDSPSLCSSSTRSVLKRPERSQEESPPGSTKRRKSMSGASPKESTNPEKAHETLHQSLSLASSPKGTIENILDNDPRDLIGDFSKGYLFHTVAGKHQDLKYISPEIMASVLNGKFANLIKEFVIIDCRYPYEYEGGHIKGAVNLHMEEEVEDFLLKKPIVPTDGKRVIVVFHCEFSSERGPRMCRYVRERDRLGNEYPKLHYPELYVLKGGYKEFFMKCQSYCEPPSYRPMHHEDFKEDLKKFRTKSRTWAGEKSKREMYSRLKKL

[22] = test system: SK-MEL-2; assay: Growth inhibition of human SK-MEL-2 cells at 10 uM after 48 hrs by SRB assay relative to control; assay type: functional; settings: SK-MEL-2, 48 h, read-out: GI
[23] = test system: HOP-92; assay: Growth inhibition of human HOP92 cells at 10 uM after 48 hrs by SRB assay relative to control; assay type: functional; settings: HOP-92, 48 h, read-out: GI
[24] = test system: NCI/ADR-RES; assay: Growth inhibition of human NCI/ADR-RES cells at 10 uM after 48 hrs by SRB assay relative to control; assay type: functional; settings: read-out: GI
[25] = target: T2, M-phase inducer phosphatase 2 (Homo sapiens, UniProt P30305); assay: Inhibition of human CDC25B using OMFP as substrate after 15 mins by fluorescence assay
T2 sequence (P30305 whole entry): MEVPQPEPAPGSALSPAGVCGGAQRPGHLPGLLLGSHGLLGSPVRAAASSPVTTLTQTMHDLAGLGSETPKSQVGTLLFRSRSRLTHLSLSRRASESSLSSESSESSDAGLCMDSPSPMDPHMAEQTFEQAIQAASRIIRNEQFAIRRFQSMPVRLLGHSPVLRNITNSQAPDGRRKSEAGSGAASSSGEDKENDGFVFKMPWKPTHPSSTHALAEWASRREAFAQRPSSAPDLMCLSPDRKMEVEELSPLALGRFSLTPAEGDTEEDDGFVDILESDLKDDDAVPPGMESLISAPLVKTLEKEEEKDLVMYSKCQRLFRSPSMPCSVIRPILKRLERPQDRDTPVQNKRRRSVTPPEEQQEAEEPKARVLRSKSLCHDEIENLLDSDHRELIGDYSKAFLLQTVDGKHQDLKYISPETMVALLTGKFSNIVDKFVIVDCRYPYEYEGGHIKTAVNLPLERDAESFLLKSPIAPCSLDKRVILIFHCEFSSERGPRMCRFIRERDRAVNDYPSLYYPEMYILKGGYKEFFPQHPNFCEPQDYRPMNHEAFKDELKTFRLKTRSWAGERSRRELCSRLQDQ

[26] = test system: CCRF-CEM; assay: Growth inhibition of human CCRF-CEM cells at 10 uM after 48 hrs by SRB assay relative to control; assay type: functional; settings: read-out: GI

Structure (SMILES): COc1ccc(Cc2nnc(SCC(=O)c3ccc(Cl)cc3)n2-c2ccc(C)cc2)cc1
- inhibition of growth at 10 µM [1]: 1.7%
- inhibition of growth at 10 µM [2]: 5.6%
- inhibition of growth at 10 µM [3]: 11.7%
- inhibition of growth at 10 µM [4]: 1.07%
- inhibition of growth at 10 µM ([5]; HL-60, 48 h, read-out: GI): 26.4%
- inhibition of growth at 10 µM [6]: 12%
- inhibition of growth at 10 µM [7]: 1.52%
- inhibition of growth at 10 µM [8]: 10.4%
- inhibition of growth at 10 µM [9]: 46%
- inhibition of growth at 10 µM [10]: 5.42%
- inhibition of growth at 10 µM [11]: 4.28%
- inhibition of growth at 10 µM [12]: 53.5%
- growth inhibition (GI) [13]: inactive
- inhibition of growth at 10 µM [14]: 32.7%
- inhibition of growth at 10 µM [15]: 1.19%
- inhibition of growth at 10 µM [16]: 18.6%
- inhibition of growth at 10 µM [17]: 11.4%
- growth inhibition (GI) [18]: inactive
- inhibition of growth at 10 µM [19]: 7.12%
- CC50 at 24 h [20]: > 100 µM
- IC50 [21]: 20.5 µM
- inhibition of growth at 10 µM [22]: 10%
- inhibition of growth at 10 µM [23]: 36.9%
- inhibition of growth at 10 µM [24]: 12%
- IC50 [25]: 17.3 µM
- inhibition of growth at 10 µM [26]: 23%

Structure (SMILES): COc1ccc(Cc2nnc(SCC(=O)Nc3ccc(Cl)cc3)n2-c2ccccc2)cc1
- growth inhibition (GI) [1]: inactive
- inhibition of growth at 10 µM [2]: 8.87%
- inhibition of growth at 10 µM [3]: 8.3%
- inhibition of growth at 10 µM [4]: 14.1%
- growth inhibition (GI) [5]: inactive
- inhibition of growth at 10 µM [6]: 11.7%
- inhibition of growth at 10 µM [7]: 3.39%
- inhibition of growth at 10 µM [8]: 4.12%
- inhibition of growth at 10 µM [9]: 15.5%
- inhibition of growth at 10 µM [10]: 18.8%
- growth inhibition (GI) [11]: inactive
- inhibition of growth at 10 µM [12]: 25%
- inhibition of growth at 10 µM [13]: 3%
- inhibition of growth at 10 µM [14]: 42.3%
- inhibition of growth at 10 µM [15]: 11.9%
- inhibition of growth at 10 µM [16]: 1.8%
- inhibition of growth at 10 µM [17]: 8.27%
- growth inhibition (GI) [18]: inactive
- inhibition of growth at 10 µM [19]: 14.5%
- CC50 at 24 h [20]: > 100 µM
- IC50 [21]: 32.9 µM
- inhibition of growth at 10 µM [22]: 3.18%
- inhibition of growth at 10 µM [23]: 30%
- inhibition of growth at 10 µM [24]: 11.4%
- IC50 [25]: 22.5 µM
- inhibition of growth at 10 µM [26]: 21.4%

Structure (SMILES): COc1ccc(Cc2nnc(SCC(=O)c3ccc(Cl)cc3)n2Cc2ccccc2)cc1
- inhibition of growth at 10 µM [1]: 10%
- inhibition of growth at 10 µM [2]: 13.6%
- inhibition of growth at 10 µM [3]: 11.2%
- inhibition of growth at 10 µM [4]: 17%
- growth inhibition (GI) [5]: inactive
- inhibition of growth at 10 µM [6]: 3%
- inhibition of growth at 10 µM [7]: 5.52%
- inhibition of growth at 10 µM [8]: 8.87%
- inhibition of growth at 10 µM [9]: 35.2%
- inhibition of growth at 10 µM [10]: 14.8%
- inhibition of growth at 10 µM [11]: 18.4%
- inhibition of growth at 10 µM [12]: 29.2%
- inhibition of growth at 10 µM [13]: 9.2%
- inhibition of growth at 10 µM [14]: 28.6%
- inhibition of growth at 10 µM [15]: 6.87%
- inhibition of growth at 10 µM [16]: 10%
- inhibition of growth at 10 µM [17]: 14.4%
- inhibition of growth at 10 µM ([18]; UACC-257, 48 h, read-out: GI): 6.9%
- inhibition of growth at 10 µM [19]: 10%
- CC50 at 24 h [20]: > 100 µM
- IC50 [21]: 11.4 µM
- inhibition of growth at 10 µM [22]: 13%
- inhibition of growth at 10 µM [23]: 39.3%
- inhibition of growth at 10 µM [24]: 21.5%
- IC50 [25]: 6.7 µM
- inhibition of growth at 10 µM [26]: 20%

Structure (SMILES): COc1ccc(Cc2nnc(SCC(=O)c3ccc(Cl)cc3)n2-c2ccccc2)cc1
- growth inhibition (GI) [1]: inactive
- inhibition of growth at 10 µM [2]: 8.1%
- inhibition of growth at 10 µM [3]: 1.26%
- inhibition of growth at 10 µM [4]: 7.83%
- growth inhibition (GI) [5]: inactive
- inhibition of growth at 10 µM [6]: 16.9%
- inhibition of growth at 10 µM [7]: 7%
- inhibition of growth at 10 µM [8]: 10.1%
- inhibition of growth at 10 µM [9]: 24.5%
- inhibition of growth at 10 µM [10]: 13.7%
- inhibition of growth at 10 µM [11]: 4.64%
- inhibition of growth at 10 µM [12]: 26.7%
- inhibition of growth at 10 µM [13]: 5%
- inhibition of growth at 10 µM [14]: 24%
- inhibition of growth at 10 µM [15]: 3.4%
- inhibition of growth at 10 µM [16]: 22%
- inhibition of growth at 10 µM [17]: 12.8%
- growth inhibition (GI) [18]: inactive
- inhibition of growth at 10 µM [19]: 5.87%
- CC50 at 24 h [20]: > 100 µM
- IC50 [21]: 30.7 µM
- inhibition of growth at 10 µM [22]: 11.5%
- inhibition of growth at 10 µM [23]: 24.1%
- inhibition of growth at 10 µM [24]: 10.3%
- IC50 [25]: 20.1 µM
- inhibition of growth at 10 µM [26]: 7.71%
